Assays:
crabgrass = assay: Test B pre/postemergence crabgrass; assay type: in vivo, Digitaria sanguinalis
Method in brief: (§1)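 Herbicidal effect was estimated by eye on a ten-point control scale after plants spent twelve to sixteen days in a greenhouse following soil or foliar treatment. Foliar sprays targeted plants at one to four leaves; all doses were formulated in a non-phytotoxic solvent with surfactant.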

blackgrass = assay: Test B pre/postemergence blackgrass; assay type: in vivo, Alopecurus myosuroides
Method in brief: as §1

purple nutsedge = assay: Test B pre/postemergence purple nutsedge; assay type: in vivo, Cyperus rotundus
Method in brief: as §1

morningglory = assay: Test B pre/postemergence morningglory; assay type: in vivo, Ipomoea hederacea
Method in brief: as §1

surinam grass = assay: Test B pre/postemergence surinam grass; assay type: in vivo, Brachiaria decumbens
Method in brief: as §1

pigweed = assay: Test B pre/postemergence pigweed; assay type: in vivo, Amaranthus retroflexus
Method in brief: as §1

giant foxtail = assay: Test B pre/postemergence giant foxtail; assay type: in vivo, Setaria faberii
Method in brief: as §1

velvetleaf = assay: Test B pre/postemergence velvetleaf; assay type: in vivo, Abutilon theophrasti
Method in brief: as §1

bedstraw = assay: Test B pre/postemergence bedstraw; assay type: in vivo, Galium aparine
Method in brief: as §1

cocklebur = assay: Test B pre/postemergence cocklebur; assay type: in vivo, Xanthium strumarium
Method in brief: as §1

rape = assay: Test B pre/postemergence rape; assay type: in vivo, Brassica napus
Method in brief: as §1

corn = assay: Test B pre/postemergence corn; assay type: in vivo, Zea mays
Method in brief: as §1

wheat = assay: Test B pre/postemergence wheat; assay type: in vivo, Triticum aestivum
Method in brief: as §1

soybean = assay: Test B pre/postemergence soybean; assay type: in vivo, Glycine max
Method in brief: as §1

sugar beet = assay: Test B pre/postemergence sugar beet; assay type: in vivo, Beta vulgaris
Method in brief: as §1

wild oat = assay: Test B pre/postemergence wild oat; assay type: in vivo, Avena fatua
Method in brief: as §1

[1] = Postemergence, Rate 62 g/ha, scale of 0 to 10, 0 is no effect, 10 is complete control
[2] = Postemergence, Rate 125 g/ha, scale 0 to 10, 0 is no effect, 10 is complete control
[3] = Postemergence, Rate 500 g/ha, scale 0 to 10, 0 is no effect, 10 is complete control
[4] = Preemergence, Rate 62 g/ha, scale 0 to 10 (0 no effect, 10 complete control)
[5] = Preemergence, Rate 125 g/ha, scale 0 to 10, 0 is no effect, 10 is complete control
[6] = Preemergence, Rate 500 g/ha, scale of 0 to 10 where 0 is no effect and 10 is complete control
[7] = Rate 250 g/ha, Postemergence, scale of 0 to 10 where 0 is no effect and 10 is complete control

CC(=O)OCCCCn1c(=O)on(C(=O)N(c2ccc(Cl)cc2)C(C)C)c1=O [Compound 536]
10: Giant foxtail plant response rating (0 to 10 scale) (giant foxtail; Preemergence, Rate 250 g/ha) | Giant foxtail plant response rating (giant foxtail; [6])
5: Crabgrass plant response rating (crabgrass; [2]) | Plant response rating, Crabgrass (crabgrass; [7])
7: Giant foxtail plant response rating (giant foxtail; [4])
9: Giant foxtail plant response rating (giant foxtail; [5])
4: Soybean plant response rating (soybean; [2]) | Plant response rating, Soybean (soybean; [7])
2: Crabgrass plant response rating (crabgrass; [6]) | Morningglory plant response rating (morningglory; [1]) | Morningglory plant response rating (morningglory; [2]) | Plant response rating, Morningglory (morningglory; [3]) | Plant response rating, Morningglory (morningglory; [7]) | Soybean plant response rating (soybean; [1]) | Sugarbeets plant response rating (0 to 10 scale) (sugar beet; Preemergence, Rate 250 g/ha)
6: Plant response rating, Soybean (soybean; [3])
0: Crabgrass plant response rating (crabgrass; [1]) | Crabgrass plant response rating (crabgrass; [4]) | Crabgrass plant response rating (crabgrass; [5]) | Crabgrass plant response rating (0 to 10 scale) (crabgrass; Preemergence, Rate 250 g/ha) | Blackgrass plant response rating (blackgrass; [1]) | Blackgrass plant response rating (blackgrass; [2]) | Plant response rating, Blackgrass (blackgrass; [3]) | Blackgrass plant response rating (blackgrass; [4]) | Blackgrass plant response rating (blackgrass; [5]) | Blackgrass plant response rating (0 to 10 scale) (blackgrass; Preemergence, Rate 250 g/ha) | Blackgrass plant response rating (blackgrass; [6]) | Plant response rating, Blackgrass (blackgrass; [7]) | Nutsedge plant response rating (purple nutsedge; [1]) | Nutsedge plant response rating (purple nutsedge; [2]) | Plant response rating, Nutsedge (purple nutsedge; [3]) | Nutsedge plant response rating (purple nutsedge; [4]) | Nutsedge plant response rating (purple nutsedge; [5]) | Nutsedge plant response rating (0 to 10 scale) (purple nutsedge; Preemergence, Rate 250 g/ha) | Nutsedge plant response rating (purple nutsedge; [6]) | Plant response rating, Nutsedge (purple nutsedge; [7]) | Morningglory plant response rating (morningglory; [4]) | Morningglory plant response rating (morningglory; [5]) | B. signalgrass plant response rating (surinam grass; [1]) | B. signalgrass plant response rating (surinam grass; [2]) | Plant response rating, B. signalgrass (surinam grass; [3]) | B. signalgrass plant response rating (surinam grass; [4]) | B. signalgrass plant response rating (surinam grass; [5]) | B. signalgrass plant response rating (0 to 10 scale, 0 is no effect, 10 is complete control) (surinam grass; Preemergence, Rate 250 g/ha) | B. signalgrass plant response rating (surinam grass; [6]) | Plant response rating, B. signalgrass (surinam grass; [7]) | Redroot pigweed plant response rating (pigweed; [1]) | Redroot pigweed plant response rating (pigweed; [2]) | Redroot pigweed plant response rating (pigweed; [4]) | Redroot pigweed plant response rating (pigweed; [5]) | Redroot pigweed plant response rating (0 to 10 scale) (pigweed; Preemergence, Rate 250 g/ha) | Redroot pigweed plant response rating (pigweed; [6]) | Plant response rating, Redroot pigweed (pigweed; [7]) | Giant foxtail plant response rating (giant foxtail; [1]) | Giant foxtail plant response rating (giant foxtail; [2]) | Plant response rating, Giant foxtail (giant foxtail; [3]) | Plant response rating, Giant foxtail (giant foxtail; [7]) | Velvetleaf plant response rating (velvetleaf; [1]) | Velvetleaf plant response rating (velvetleaf; [2]) | Plant response rating, Velvetleaf (velvetleaf; [3]) | Velvetleaf plant response rating (velvetleaf; [4]) | Velvetleaf plant response rating (velvetleaf; [5]) | Velvetleaf plant response rating (0 to 10 scale) (velvetleaf; Preemergence, Rate 250 g/ha) | Velvetleaf plant response rating (velvetleaf; [6]) | Plant response rating, Velvetleaf (velvetleaf; [7]) | Bedstraw plant response rating (bedstraw; [2]) | Bedstraw plant response rating (bedstraw; [4]) | Bedstraw plant response rating (bedstraw; [5]) | Bedstraw plant response rating (0 to 10 scale) (bedstraw; Preemergence, Rate 250 g/ha) | Bedstraw plant response rating (bedstraw; [6]) | Plant response rating, Bedstraw (bedstraw; [7]) | Cocklebur plant response rating (cocklebur; [1]) | Cocklebur plant response rating (cocklebur; [2]) | Plant response rating, Cocklebur (cocklebur; [3]) | Cocklebur plant response rating (cocklebur; [4]) | Cocklebur plant response rating (cocklebur; [5]) | Cocklebur plant response rating (0 to 10 scale) (cocklebur; Preemergence, Rate 250 g/ha) | Cocklebur plant response rating (cocklebur; [6]) | Plant response rating, Cocklebur (cocklebur; [7]) | Rape plant response rating (rape; [1]) | Rape plant response rating (rape; [2]) | Plant response rating, Rape (rape; [3]) | Rape plant response rating (rape; [4]) | Rape plant response rating (rape; [5]) | Rape plant response rating (0 to 10 scale) (rape; Preemergence, Rate 250 g/ha) | Rape plant response rating (rape; [6]) | Plant response rating, Rape (rape; [7]) | Corn plant response rating (corn; [1]) | Corn plant response rating (corn; [2]) | Plant response rating, Corn (corn; [3]) | Corn plant response rating (corn; [4]) | Corn plant response rating (corn; [5]) | Corn plant response rating (0 to 10 scale) (corn; Preemergence, Rate 250 g/ha) | Corn plant response rating (corn; [6]) | Plant response rating, Corn (corn; [7]) | Wheat plant response rating (wheat; [1]) | Wheat plant response rating (wheat; [2]) | Plant response rating, Wheat (wheat; [3]) | Wheat plant response rating (wheat; [4]) | Wheat plant response rating (wheat; [5]) | Wheat plant response rating (0 to 10 scale) (wheat; Preemergence, Rate 250 g/ha) | Wheat plant response rating (wheat; [6]) | Plant response rating, Wheat (wheat; [7]) | Soybean plant response rating (soybean; [4]) | Soybean plant response rating (soybean; [5]) | Soybean plant response rating (0 to 10 scale) (soybean; Preemergence, Rate 250 g/ha) | Soybean plant response rating (soybean; [6]) | Sugarbeets plant response rating (sugar beet; [1]) | Sugarbeets plant response rating (sugar beet; [2]) | Plant response rating, Sugarbeets (sugar beet; [3]) | Sugarbeets plant response rating (sugar beet; [4]) | Sugarbeets plant response rating (sugar beet; [5]) | Plant response rating, Sugarbeets (sugar beet; [7]) | Wild oats plant response rating (wild oat; [1]) | Wild oats plant response rating (wild oat; [2]) | Plant response rating, Wild oats (wild oat; [3]) | Wild oats plant response rating (wild oat; [4]) | Wild oats plant response rating (wild oat; [5]) | Wild oats plant response rating (0 to 10 scale) (wild oat; Preemergence, Rate 250 g/ha) | Wild oats plant response rating (wild oat; [6]) | Plant response rating, Wild oats (wild oat; [7])
3: Plant response rating, Crabgrass (crabgrass; [3]) | Sugarbeets plant response rating (sugar beet; [6])
8: Plant response rating, Redroot pigweed (pigweed; [3])

— US6737383B1, “Herbicidal oxadiazolidines” (priority 1999, dated 2004)
